The values that follow come from publication PMC9967085, “Properly Substituted Benzimidazoles as a New Promising Class of Nicotinate Phosphoribosyltransferase (NAPRT) Modulators” (Pharmaceuticals, 2023).

For orientation: inhibition means how much of the control response was suppressed. As a reminder, the Ki is a dissociation constant, usually derived from enzyme kinetics or from competition with a known ligand. Broadly, the solubility (kinetic) is solubility judged after dilution from a stock solution rather than from solid. In general, Papp A→B refers to how fast a substance crosses the layer from the apical side. By Papp B→A is commonly meant the apparent permeability from the basolateral to the apical side of a cell layer.

Values joined by “and” are separate entries in the source; they are usually repeats but may differ in a detail not shown here. Identical values can stand only once. Like-named read-outs stand apart in the source and are kept apart here.

The target of data set [1] is T1, Human recombinant NAPRT (Homo sapiens, UniProt Q6XQN6).
T1 construct: made in house
T1 sequence (Q6XQN6 1-538): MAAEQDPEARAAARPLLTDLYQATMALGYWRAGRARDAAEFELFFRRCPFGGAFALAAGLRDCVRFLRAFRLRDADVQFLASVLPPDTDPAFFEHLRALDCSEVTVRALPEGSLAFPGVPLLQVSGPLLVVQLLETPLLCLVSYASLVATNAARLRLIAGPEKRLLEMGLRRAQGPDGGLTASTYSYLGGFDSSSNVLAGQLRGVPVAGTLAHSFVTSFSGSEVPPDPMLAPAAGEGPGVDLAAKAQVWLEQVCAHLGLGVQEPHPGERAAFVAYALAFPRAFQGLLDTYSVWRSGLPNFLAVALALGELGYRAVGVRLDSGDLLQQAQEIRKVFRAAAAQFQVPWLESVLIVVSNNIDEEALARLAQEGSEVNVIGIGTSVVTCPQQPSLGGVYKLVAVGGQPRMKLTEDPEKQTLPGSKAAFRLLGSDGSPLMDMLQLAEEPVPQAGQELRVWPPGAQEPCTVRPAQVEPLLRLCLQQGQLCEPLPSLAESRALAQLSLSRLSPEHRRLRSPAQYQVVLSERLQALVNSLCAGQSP
Put plainly: HPLC-based NAPRT activity screening assay. The data set is classed as biochemical.

The target in data set [2] is T1, Human recombinant NAPRT. Put plainly: Kinetic analyses of NAPRT inhibition (HPLC assay, Lineweaver–Burk plot). It counts as biochemical.
Data set [3] is described as follows: Kinetic solubility at pH 7.4. The data set is classed as physicochemical. The settings on record: pH 7.4, aqueous buffer, kinetic from dmso stock. How it is done: (§1) The in silico ADME characterization has recently been reported for NAPRT inhibitors 1, 15 and 16, belonging to different chemotypes, and the results indicated promising pharmacokinetic features for the studied compounds [17]. With the aim to preliminarily shed light on the pharmacokinetics of this series of compounds, 18 was evaluated for its in vitro ADME profile. Kinetic solubility at pH 7.4, plasma protein binding from human and mouse species determined by using equilibrium dialysis, intrinsic hepatic clearance determined in human and mouse liver microsomes, and permeability studies in MDCKII (Madin–Darby canine kidney cells, a cell strain derived from the distal tubule or collecting duct of the nephron) and MDCKII-MDR1 (MDCK II cells overexpressing the multidrug resistance protein 1, MDR1) cell lines were performed according to previously reported procedures. Both cell lines were originally obtained from American Type Culture Collection (ATCC) and have been cultured and amplified with respect to permeability assessment at the test site.

Data set [4] in a line: Plasma protein binding by equilibrium dialysis, human. The data set is classed as in vitro ADME. The settings on record: performed at 0.5 μM, read-out: Protein Binding, Human plasma (FU). On the procedure:
as §1
Background: In equilibrium dialysis free small molecules cross a membrane that holds back macromolecules.

The nature of data set [5]: Plasma protein binding by equilibrium dialysis, mouse. The data set is classed as in vitro ADME. The settings on record: performed at 0.5 μM, read-out: Protein Binding, Mouse plasma (FU). How it is done:
as §1

A short description of data set [6]: Hepatic intrinsic clearance in human liver microsomes. The data set is classed as in vitro ADME. How it is done:
as §1
A general note: Microsomes from liver hold many membrane-bound enzymes, among them those of drug oxidation.

Data set [7] is described as follows: Hepatic intrinsic clearance in mouse liver microsomes. It counts as in vitro ADME. How it is done: as §1
Data set [8] in a line: Permeability in MDCKII cells. The data set is classed as in vitro ADME, canine. The settings on record: dog, MDCK. On the procedure:
as §1

A further data set has as its system MDCKII-MDR1. Description: Permeability in MDCKII-MDR1 cells. It counts as in vitro ADME, canine. The settings on record: from efflux ratio in MDCKII-MDR1. On the procedure: as §1
The subject of another data set is MDR1. Description: Permeability in MDCKII-MDR1 cells. It counts as in vitro ADME, canine. The following applies: dog, MDCK-MDR1. On the procedure:
as §1

Regarding `CC(=O)Nc1cccc(CNc2ccc3c(c2)nc(C)n3C)c1` [Compound 18, N-(3-(((1,2-dimethyl-1H-benzo[d]imidazol-5-yl)amino)methyl)phenyl)acetamide], the “Effect on NAPRT catalytic activity (in words)” value on Human recombinant NAPRT [1] was “inhibit NAPRT activity”. The “-Fold Stimulation (not active class)” value on Human recombinant NAPRT [1] (1 mM compound, 0.2 mM NA, 0.4 mM PRPP) is reported as “- (Not active, it is referred to compounds showing less than 10% inhibition or less than 1.10-fold stimulation)”. In addition, the inhibition at 1000 µM at Human recombinant NAPRT [1] (1 mM compound, 0.2 mM NA, 0.4 mM PRPP, read-out: % Inhibition) stood at 46.1 ± 8.1%. Further, at Human recombinant NAPRT [2], the “Inhibition mechanism towards NA” value is “noncompetitive”. Besides, the “Inhibition mechanism towards PRPP” value at Human recombinant NAPRT [2] is “mixed”. Besides, the Ki is 338 µM at Human recombinant NAPRT [2] (NA 25 µM to 100 µM at 0.4 mM PRPP, noncompetitive, read-out: Ki towards NA) and 134 µM on Human recombinant NAPRT [2] (PRPP 25 µM to 100 µM at 0.4 mM NA, mixed, read-out: Ki towards PRPP). For the same molecule, the kinetic solubility in data set [3] is 312 µM and 130 µg/mL. The fraction unbound at 0.5 μM in data set [4] was 0.146; in data set [5] it was above 0.5. In data set [6] (human liver microsomes), the “Human Cli” value is below 9.92 µL/min/mg protein. The “WSM in vivo prediction” value in data set [6] (human, well-stirred model) is listed as 6.83 mL/min/kg; in [7] (mouse, well-stirred model), 26.9 mL/min/kg. For the same molecule, the “Mouse Cli” value in [7] (mouse liver microsomes) was found to be 120 µL/min/mg protein. For the same molecule, the apical-to-basolateral permeability (Papp A→B) in data set [8] (apical to basolateral) amounted to 3.83 ×10⁻⁶ cm/s; with MDR1 (apical to basolateral) it was 0.339 ×10⁻⁶ cm/s. In addition, the results for the basolateral-to-apical permeability (Papp B→A) (in data set [8] (basolateral to apical); in the data set with MDR1 (basolateral to apical)) were 6.59 ×10⁻⁶ cm/s and 17.4 ×10⁻⁶ cm/s, respectively. In addition, the efflux ratio in [8] (read-out: Efflux Ratio MDCKII (B-A/A-B)) stood at 1.7; in the data set with MDR1 (read-out: Efflux Ratio MDCKII-MDR1 (B-A/A-B)) it was 51.3. In addition, the P-gp substrate status entry with MDCKII-MDR1 is reported as “P-gp substrate”.
